Measurements published in patent US8679765B2, “Methods and compositions for diagnosis and treatment of malignant and non-malignant gammopathies” (Ludwig Institute for Cancer Research Ltd., priority 2009, dated 2014).

How the values were obtained:
[1] = target: hyperphosphorylation of Paratarg; assay: Inhibition experiments: LCLs cultured with kinase inhibitors, IEF and immunodetection with anti-STOML2; type: cell-based, human; settings: IEF analysis; for effect on hyperphosphorylation of paratarg: LCLs of healthy donors or patients
Experimental: LCLs derived from healthy donors or patients were cultured in the presence of the kinase inhibitors at the indicated concentrations. Lysates were analysed by IEF and immunodetected with anti-STOML2. A shown in this figure, hyperphosphorylation is inhibited by staurosporine, ellagic acid and wortmannin. […] Using BIM_I and Rottlerin, PKC isoform delta or zeta could be identified as responsible for hyperphosphorylation. • a) Same as b), but with other concentrations of the inhibitors.
LCLs were established by infection of PBMCs with EBV as described by Neumann et al (Blood 2005; 106:3105-13).
Stably transfected cell lines were cultured in the presence of inhibitory compounds as indicated. After 5 d cells were removed and analysed by IEF and immunodetection.
In MGUS/MM patients and their relatives hyperphosphorylated paratarg is expressed constitutively, while hyperphosphorylation of paratarg is temporary in all healthy persons and cell lines analysed. This was seen by culturing LCLs and cell lines in the presence of kinase or phosphatase inhibitors. The identification of Ser17 as the differential phosphorylation site led to the prediction of a […] (PKC) responsible for hyperphosphorylation. Culturing of LCLs and cell lines in the presence of suitable inhibitors (staurosporine, Wortmannin, Bisindolylmaleimid I) at concentrations as indicated below and followed by IEF analysis identifies the PKCzeta isoform as the active kinase (summarized in FIG. 16). This was verified by using highly specific PKCzeta pseudosubstrate as inhibitor (FIG. 16d). […] (FIG. 18).

[2] = test system: paraproteins of serum pool #1 (MGUS/MM patients' sera); assay: Serum profiling on high density protein arrays (paraprotein screening of hEx1 human fetal brain macroarray); type: binding; parameters: key: Paraprotein-binding quality/strength are ++, + and ±.; Paraprotein-binding quality/strength are ++, + and ±.; Paraprotein-binding quality/strength are ++, + and ±; settings: serum pool #1 (n=114), each serum diluted 1:10^8
Experimental: Screening analyses were performed on hEx1 high-density protein expression cDNA libraries, created in Hans Lehrach's laboratory at the Max Planck Institute for Molecular Genetics in Berlin (Germany) and obtained from the Reference Center of the German Human Genome Project (RZPD) (Bussow et al, 1998). These high-density filter membranes display proteins that were expressed from a modified pQE protein expression vector (Qiagen). This vector featured a hexahistidine tag, a T5 promoter and two lac operator sequences, which allowed repression during the growth phase by overexpression of the Lac repressor protein, and subsequent induction of protein expression with isopropyl-beta-D-thiogalactopyranoside (IPTG).
High density protein arrays of the protein expression set of the hEx1 library were obtained from the German Resource Center for Genome Research (RZPD) and provided by Dr. Mahlknecht from our department. They consist of 37,200 independent clones derived from a human fetal brain cDNA expression library and were used for autoantibody detection. For serum profiling, the filters were blocked in 10% (w/v) non-fat, dry milk powder in TBST (TBS, 0.1% (v/v) Tween 20) at 4° C. overnight, washed twice in TBST, and incubated for 1 h with serum pool #1 at a dilution of 1:10^8 for each serum. Following three 30-min TBST washes and subsequent incubation with the secondary antibody (goat anti-human IgG biotinylated, Dianova, diluted 1:2.500) and Strep-PDX (1:15.000) in 2% (w/v) Milk/TBST, the filters were washed three times for 30 min in TBST. This was followed by detection using Pharmacia ECL system. Positive signals were localized according to the manufacturer's protocol. Corresponding clones were obtained from RZPD.
In this study we screened a human high-density protein array containing 37,200 independent recombinant proteins derived from a human fetal brain expression library with sera obtained from patients with monoclonal gammopathy of undetermined significance (MGUS) and multiple myeloma (MM).
The signal pattern obtained from the screening with the paraprotein pools at a dilution of 1:10^8 were compared with the patterns obtained from screening with the control sera from clinically healthy donors and to background incubations. […] 5′- and 3′-tag sequencing of these clones was performed, and their sequences were used for BLAST searches against public databases at NCBI.
Using serum pool #1 (paraprotein type: 15 IgA, 88 IgG, 11 oligoclonal, n=114) we identified 14 putative paraprotein targets on the human protein filter array (FIG. 1, Tab. 1). […] Sequence searches and comparisons using the in-frame sequences identified five known proteins and one unknown gene product derived from chromosome 8.

| Molecule | Signal-quality (paraprotein-binding quality/strength) [2] | effect on hyperphosphorylation of paratarg [1] | other results |
| --- | --- | --- | --- |
| CN(C)CCCn1cc(C2=C(c3c[nH]c4ccccc34)C(=O)NC2=O)c2ccccc21 [BIM_I, Bisindolylmaleimid I] |  |  | kinase identified by inhibition of paratarg hyperphosphorylation ([1]; LCLs, BIM_I at 6 μM): clearly identified PKCzeta as the kinase responsible |
| O=c1oc2c(O)c(O)cc3c(=O)oc4c(O)c(O)cc1c4c23 [ellagic acid] |  | inhibited |  |
| CN[C@@H]1C[C@H]2O[C@@](C)([C@@H]1OC)n1c3ccccc3c3c4c(c5c6ccccc6n2c5c31)C(=O)NC4 [staurosporine] |  | inhibited |  |

Further lines, with some results ahead:

| Signal-quality (paraprotein-binding quality/strength) [2] | Molecule | effect on hyperphosphorylation of paratarg [1] | other results |
| --- | --- | --- | --- |
| ± | MPMGp800J11592: RZPD clone, NM_001294.1 (protein, UniProt O96005 2-669, looked up) Putative lipid scramblase …: AAAQEADGARSAVVAAGGGSSGQVTSNGSIGRDPPAETQPQNPPAQPAPNAWQVIKGVLFRIFIIWAISSWFRRGPAPQDQAGPGGAPRVASRNLFPKDTLMNLHVYISEHEHFTDFNATSALFWEQHDLVYGDWTSGENSDGCYEHFAELDIPQSVQQNGSIYIHVYFTKSGFHPDPRQKALYRRLATVHMSRMINKYKRRRFQKTKNLLTGETEADPEMIKRAEDYGPVEVISHWHPNITINIVDDHTPWVKGSVPPPLDQYVKFDAVSGDYYPIIYFNDYWNLQKDYYPINESLASLPLRVSFCPLSLWRWQLYAAQSTKSPWNFLGDELYEQSDEEQDSVKVALLETNPYLLALTIIVSIVHSVFEFLAFKNDIQFWNSRQSLEGLSVRSVFFGVFQSFVVLLYILDNETNFVVQVSVFIGVLIDLWKITKVMDVRLDREHRVAGIFPRLSFKDKSTYIESSTKVYDDMAFRYLSWILFPLLGCYAVYSLLYLEHKGWYSWVLSMLYGFLLTFGFITMTPQLFINYKLKSVAHLPWRMLTYKALNTFIDDLFAFVIKMPVMYRIGCLRDDVVFFIYLYQRWIYRVDPTRVNEFGMSGEDPTAAAPVAEVPTAAGALTPTPAPTTTTATREEASTSLPTKPTQGASSASEPQEAPPKPAEDKKKD |  |  |
| ++ | MPMGp800B22602: RZPD clone, NM_006762.1 (protein) MDPRLSTVRQTCCCFNVRIATTALAIYHVIMSVLLFIEHSVEVAHGKASCKLSQMGYLRIADLISSFLLITMLFIISLSLLIGVVKNREKYLLPFLSLQIMDYLLCLLTLLGSYIELPAYLKLASRSRASSSKFPLMTLQLLDFCLSILTLCSSYMEVPTYLNFKSMNHMNYLPSQEDMPHNQFIKMMIIFSIAFITVLIFKVYMFKCVWRCYRLIKCMNSVEEKRNSKMLQKVVLPSYEEALSLPSKTPEGGPAPPPYSEV |  |  |
